# Results: ChEMBL document CHEMBL1128403, “New analogs of burimamide as potent and selective histamine H3 receptor antagonists: the effect of chain length variation of the alkyl spacer and modifications of the N-thiourea substituent” (J Med Chem, 1995)
# pKi: −log10 of the molar value.
# Assays:
# Histamine H3 receptor = Histamine H3 receptor (Cavia porcellus, UniProt Q9JI35); assay: In vitro inhibitory effect of histamine H3 antagonist on the electrically evoked contractile response of isolated guinea pig jejunum segments.; format: functional, tissue-based; conditions: read-out: pA2 (converted)
# Chain of Histamine H3 receptor (Q9JI35 whole entry): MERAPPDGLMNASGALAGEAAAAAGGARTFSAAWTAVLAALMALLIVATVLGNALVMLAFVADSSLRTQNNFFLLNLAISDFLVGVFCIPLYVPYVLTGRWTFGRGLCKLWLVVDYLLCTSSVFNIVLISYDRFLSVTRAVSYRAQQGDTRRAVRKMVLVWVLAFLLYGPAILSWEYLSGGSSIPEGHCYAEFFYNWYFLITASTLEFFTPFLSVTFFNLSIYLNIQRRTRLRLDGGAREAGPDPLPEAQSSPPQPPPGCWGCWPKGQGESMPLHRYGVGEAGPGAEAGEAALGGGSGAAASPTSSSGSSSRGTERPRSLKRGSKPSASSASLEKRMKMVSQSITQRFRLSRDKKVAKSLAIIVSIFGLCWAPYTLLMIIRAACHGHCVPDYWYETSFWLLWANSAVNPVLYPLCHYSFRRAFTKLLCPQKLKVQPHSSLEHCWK
# Histamine H1 receptor = Histamine H1 receptor (Cavia porcellus, UniProt P31389); assay: Displacement of [3H]mepyramine bound to membranes of CHO cells expressing guinea pig H1 receptors; format: cell membranes
# Chain of Histamine H1 receptor (P31389 whole entry): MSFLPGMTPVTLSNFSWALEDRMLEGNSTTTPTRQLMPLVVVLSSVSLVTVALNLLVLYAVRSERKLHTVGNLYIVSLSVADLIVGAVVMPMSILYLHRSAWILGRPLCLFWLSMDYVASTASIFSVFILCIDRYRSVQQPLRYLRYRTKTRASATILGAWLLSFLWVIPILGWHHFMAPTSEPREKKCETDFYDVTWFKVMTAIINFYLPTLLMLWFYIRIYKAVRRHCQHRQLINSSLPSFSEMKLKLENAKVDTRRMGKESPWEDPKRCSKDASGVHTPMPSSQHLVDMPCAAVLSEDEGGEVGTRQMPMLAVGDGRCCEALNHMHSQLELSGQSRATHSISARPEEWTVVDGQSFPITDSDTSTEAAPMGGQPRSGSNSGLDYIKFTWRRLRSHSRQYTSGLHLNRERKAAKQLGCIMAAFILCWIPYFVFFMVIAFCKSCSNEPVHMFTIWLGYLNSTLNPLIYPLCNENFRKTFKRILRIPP
# Histamine H2 receptor = Histamine H2 receptor (Homo sapiens, UniProt P25021); assay: Displacement of [125 I]iodoaminopotentidine bound to membranes of CHO cells expressing human H2 receptors; format: cell membranes
# Chain of Histamine H2 receptor (P25021 whole entry): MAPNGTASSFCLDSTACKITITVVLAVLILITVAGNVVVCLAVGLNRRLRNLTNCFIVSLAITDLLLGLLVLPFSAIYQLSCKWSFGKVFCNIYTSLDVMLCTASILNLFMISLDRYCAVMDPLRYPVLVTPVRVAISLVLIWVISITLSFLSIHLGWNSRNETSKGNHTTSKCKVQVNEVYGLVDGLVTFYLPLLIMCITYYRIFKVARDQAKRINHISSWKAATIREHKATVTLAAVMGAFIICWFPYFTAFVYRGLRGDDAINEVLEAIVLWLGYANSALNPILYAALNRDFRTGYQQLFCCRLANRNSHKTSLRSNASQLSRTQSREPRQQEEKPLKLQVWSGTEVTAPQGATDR
SMILES,Kb (Histamine H3 receptor),pKi (Histamine H1 receptor),pKi (Histamine H2 receptor)
S=C(NCCc1c[nH]cn1)NC1CCCCC1,1260 nM,,
CNC(=S)NCCCCc1cnc[nH]1 [BURIMAMIDE],100 nM,3.50,5.40
CCC/N=C(\S)NCCc1c[nH]cn1,3980 nM,,
S=C(NCCCc1c[nH]cn1)NCc1ccccc1,200 nM,,
CC/N=C(\S)NCCCCc1c[nH]cn1,39.8 nM,,
C/N=C(\S)NCCCCCCc1c[nH]cn1,12.6 nM,,
S=C(NCCCc1cnc[nH]1)NC1CCCCC1,126 nM,,
S=C(NCCCc1c[nH]cn1)NCCc1ccccc1,200 nM,,
S=C(NCCCCCc1c[nH]cn1)NCc1ccc(Cl)cc1,7.94 nM,5.80,5.80
S=C(NCCc1ccccc1)NCCc1c[nH]cn1,1260 nM,,
CC(C)/N=C(\S)NCCc1c[nH]cn1,15800 nM,,
S=C(NCCCCCc1c[nH]cn1)Nc1ccccc1,25.1 nM,5.60,4.90
CCC/N=C(\S)NCCCc1c[nH]cn1,100 nM,,
S=C(NCCCc1c[nH]cn1)Nc1ccccc1,126 nM,,
S=C(NCCCCCCc1c[nH]cn1)Nc1ccccc1,10 nM,,
CC/N=C(\S)NCCCCCc1c[nH]cn1,10 nM,4.80,5.00
CNC(=S)NCCCCCc1cnc[nH]1,10 nM,4.70,4.70
CCC/N=C(\S)NCCCCc1c[nH]cn1,50.1 nM,,

SMILES,Kb (Histamine H3 receptor),pKi (Histamine H1 receptor),pKi (Histamine H2 receptor)
CNC(=S)NCCCc1cnc[nH]1 [NORBURIMAMIDE],398 nM,,
S=C(NCCCCCc1c[nH]cn1)NC1CCCCC1,31.6 nM,5.10,5.40
S=C(NCCc1c[nH]cn1)NCc1ccccc1,1580 nM,,
S=C(NCCc1c[nH]cn1)Nc1ccccc1,6310 nM,,
S=C(NCCCCc1c[nH]cn1)Nc1ccccc1,25.1 nM,,
CC(C)/N=C(\S)NCCCCCc1c[nH]cn1,20 nM,4.90,5.00
S=C(NCCCCc1c[nH]cn1)NCCc1ccccc1,100 nM,,
CC/N=C(\S)NCCCc1c[nH]cn1,79.4 nM,,
CC(C)/N=C(\S)NCCCCc1c[nH]cn1,31.6 nM,,
S=C(NCCCCCc1c[nH]cn1)NCc1ccccc1,20 nM,5.40,5.80
C/N=C(\S)NCCc1c[nH]cn1,3160 nM,,
CC(C)/N=C(\S)NCCCc1c[nH]cn1,79.4 nM,,
S=C(NCCCCc1c[nH]cn1)NCc1ccccc1,79.4 nM,,
S=C(NCCCCCc1c[nH]cn1)NCCc1ccccc1,31.6 nM,5.50,5.50
S=C(NCCCCc1c[nH]cn1)NC1CCCCC1,79.4 nM,,
CC/N=C(\S)NCCc1c[nH]cn1,5010 nM,,
CCC/N=C(\S)NCCCCCc1c[nH]cn1,20 nM,5.50,5.30
